The values below come from paper PMC6631223, “Chain-Branched Polyhydroxylated Octahydro-1H-Indoles as Potential Leads against Lysosomal Storage Diseases” (Pharmaceuticals, 2019).

Marks after values point to notes of the source that are not given here. Some results are limits rather than exact numbers.

What all share (format): biochemical
The target of test [1] is T1, α-Glucosidase (yeast) (Saccharomyces cerevisiae, UniProt P53341).
T1 construct: purchased Sigma-Aldrich Co
Briefly: Glycosidase inhibition: α-glucosidase (yeast). Particulars: α-glucosidase, yeast; 1000 μM. An excerpt:
(§1) The enzymes α-glucosidase (from yeast, rice), β-glucosidase (from almonds, bovine liver), α-galactosidase (from coffee beans), β-galactosidase (from bovine liver), α-mannosidase (from jack beans), β-mannosidase (from snails), α-L-fucosidase (from bovine kidney), α-L-rhamnosidase (from Penicillium decumbens), β-glucuronidases (from Escherichia coli), α,α-trehalase (from porcine kidney), amyloglucosidase (from Aspergillus niger), p-nitrophenyl glycosides, and various disaccharides were purchased from Sigma-Aldrich Co. Brush border membranes were prepared from the rat small intestine according to the method of Kessler et al., and were assayed at pH 6.8 for rat intestinal maltase using maltose. For rat intestinal glucosidases and porcine kidney trehalase activities, the reaction mixture (0.2 mL) contained 25 mM substrate and the appropriate amount of enzyme, and the incubations were performed for 10 min at 37 °C. The reaction was stopped by heating at 100 °C for 3 min. After centrifugation (600 g; 10 min), 0.035 mL of the resulting reaction mixture were added to 2.1 mL of the Glucose CII-test Wako (Wako Pure Chemical Ind., Osaka, Japan). The absorbance at 505 nm was measured to determine the amount of the released D-glucose. Other glycosidase activities were determined using an appropriate p-nitrophenyl glycoside as substrate at the optimum pH of each enzyme. The reaction mixture (0.2 mL) contained 2 mM of the substrate and the appropriate amount of enzyme. The reaction was stopped by adding 0.4 mL of 400 mM Na2CO3. The released p-nitrophenol was measured spectrometrically at 400 nm.

Test [2] concerns Rat intestinal maltase. The test is described as follows: Glycosidase inhibition: rat intestinal maltase. Particulars: maltose, pH 6.8, 1000 μM.
Description: as §1

Test [3] has as its target T2, β-Galactosidase (bovine liver) (Bos taurus, UniProt Q58D55).
T2 sequence (Q58D55 28-653): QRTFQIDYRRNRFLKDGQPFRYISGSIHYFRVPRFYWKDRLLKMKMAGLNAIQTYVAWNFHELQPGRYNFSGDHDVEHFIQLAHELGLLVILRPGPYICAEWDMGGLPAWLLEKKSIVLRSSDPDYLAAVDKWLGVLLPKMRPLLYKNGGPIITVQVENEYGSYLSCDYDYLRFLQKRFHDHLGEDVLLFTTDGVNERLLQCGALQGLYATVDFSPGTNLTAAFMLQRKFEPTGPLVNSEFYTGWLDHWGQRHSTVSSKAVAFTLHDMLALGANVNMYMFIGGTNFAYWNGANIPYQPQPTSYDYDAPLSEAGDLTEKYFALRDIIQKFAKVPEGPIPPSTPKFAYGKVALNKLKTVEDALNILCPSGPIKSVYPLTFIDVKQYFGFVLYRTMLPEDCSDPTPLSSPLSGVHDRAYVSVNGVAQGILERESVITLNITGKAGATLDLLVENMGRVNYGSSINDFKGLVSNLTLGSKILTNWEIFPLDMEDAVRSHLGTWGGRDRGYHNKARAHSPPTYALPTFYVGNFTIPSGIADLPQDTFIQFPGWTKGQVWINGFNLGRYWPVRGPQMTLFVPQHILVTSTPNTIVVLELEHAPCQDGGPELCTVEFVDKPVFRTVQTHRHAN
Briefly: Glycosidase inhibition: β-galactosidase (bovine liver).
Description: as §1, with “After centrifugation (600 g; 10 min), 0.035 mL of the resulting reaction mixture were added to 2.1 mL of the Glucose CII-test Wako (Wako Pure Chemical Ind., Osaka, Japan).” left out, “The reaction mixture (0.2 mL) contained 2 mM of the substrate and the appropriate amount of enzyme. The reaction was stopped by adding 0.4 mL of 400 mM Na2CO3.” left out

Test [4] deals with T3, Lactase (β-Galactosidase) (Rattus norvegicus, UniProt Q02401).
T3 construct: Brush border membranes were prepared from the rat small intestine; from tissue; host or cells: rat small intestine brush border membranes (inferred)
T3 sequence (Q02401 868-1928): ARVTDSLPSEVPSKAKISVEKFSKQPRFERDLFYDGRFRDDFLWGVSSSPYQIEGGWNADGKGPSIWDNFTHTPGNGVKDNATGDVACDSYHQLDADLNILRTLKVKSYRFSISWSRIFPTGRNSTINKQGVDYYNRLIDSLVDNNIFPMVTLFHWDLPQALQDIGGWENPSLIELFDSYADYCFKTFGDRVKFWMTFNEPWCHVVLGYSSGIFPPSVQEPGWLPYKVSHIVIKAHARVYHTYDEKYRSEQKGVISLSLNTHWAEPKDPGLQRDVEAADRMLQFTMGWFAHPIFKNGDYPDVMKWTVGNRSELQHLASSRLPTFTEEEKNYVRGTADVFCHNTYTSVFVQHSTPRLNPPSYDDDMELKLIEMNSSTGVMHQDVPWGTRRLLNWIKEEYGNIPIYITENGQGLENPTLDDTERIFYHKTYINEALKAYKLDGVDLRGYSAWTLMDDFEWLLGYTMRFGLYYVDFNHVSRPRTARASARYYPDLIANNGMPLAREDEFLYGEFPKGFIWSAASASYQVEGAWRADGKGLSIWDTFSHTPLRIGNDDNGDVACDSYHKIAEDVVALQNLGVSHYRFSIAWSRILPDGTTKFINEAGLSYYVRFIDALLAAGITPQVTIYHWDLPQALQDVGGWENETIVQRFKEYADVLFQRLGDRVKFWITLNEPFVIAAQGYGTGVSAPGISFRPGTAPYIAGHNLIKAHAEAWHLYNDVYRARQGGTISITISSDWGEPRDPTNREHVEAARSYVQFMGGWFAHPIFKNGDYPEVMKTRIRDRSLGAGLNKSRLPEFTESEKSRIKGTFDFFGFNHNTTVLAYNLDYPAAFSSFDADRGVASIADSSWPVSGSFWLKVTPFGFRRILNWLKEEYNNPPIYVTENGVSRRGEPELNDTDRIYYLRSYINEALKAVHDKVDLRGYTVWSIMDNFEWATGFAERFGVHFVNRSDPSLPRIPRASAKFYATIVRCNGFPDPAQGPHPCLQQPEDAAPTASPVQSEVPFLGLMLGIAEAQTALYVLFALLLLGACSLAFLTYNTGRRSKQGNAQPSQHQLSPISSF
The test is described as follows: Glycosidase inhibition: lactase. As to conditions: read-out: inhibition % at 1000 μM.
Description: as §1

Test [5] deals with β-Mannosidase (snail). The test is described as follows: Glycosidase inhibition: β-mannosidase (snail). Particulars: 1000 μM.
Description: as §1

T1 sequence (P53341 whole entry): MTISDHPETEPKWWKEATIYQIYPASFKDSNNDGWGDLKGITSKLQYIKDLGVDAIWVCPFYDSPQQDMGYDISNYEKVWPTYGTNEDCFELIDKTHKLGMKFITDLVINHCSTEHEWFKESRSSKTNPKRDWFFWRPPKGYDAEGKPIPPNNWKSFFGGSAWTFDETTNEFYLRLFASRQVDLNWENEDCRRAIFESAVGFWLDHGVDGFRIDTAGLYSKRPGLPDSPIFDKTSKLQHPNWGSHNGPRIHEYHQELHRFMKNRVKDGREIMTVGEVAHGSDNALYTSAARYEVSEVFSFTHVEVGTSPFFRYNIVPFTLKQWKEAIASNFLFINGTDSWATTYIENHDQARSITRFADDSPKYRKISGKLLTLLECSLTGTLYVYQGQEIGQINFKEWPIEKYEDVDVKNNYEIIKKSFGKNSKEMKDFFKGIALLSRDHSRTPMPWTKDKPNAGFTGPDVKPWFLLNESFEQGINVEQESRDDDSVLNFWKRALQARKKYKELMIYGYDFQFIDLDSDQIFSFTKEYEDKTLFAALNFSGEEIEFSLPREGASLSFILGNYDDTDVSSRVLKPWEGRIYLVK

What is called inhibition is the change of the read-out against control, counted positive when it falls. Consider `CC[C@H]1CN[C@H]2C[C@@H](O)[C@H](O)[C@@H](O)[C@H]12` [Compound 13, (3R,3aR,4S,5S,6R,7aS)-3-ethyloctahydro-1H-indole-4,5,6-triol], for which the values for the inhibition at 1000 µM in test [1], in test [3] and in test [4] were 19.5%, under 50% and 7.4%, respectively. Besides, the “inhibition % at 1000 μM” value in test [2] is 0% ^a; in test [5] it was 2.3% ^a.
Take `CC[C@@H]1CN[C@H]2C[C@@H](O)[C@H](O)[C@@H](O)[C@H]12` [Compound 10, (3S,3aR,4S,5S,6R,7aS)-3-Ethyloctahydro-1H-indole-4,5,6-triol]: the inhibition at 1000 µM in test [1] is 16%; in test [3], under 50%; in test [4], 0.6%. Also, the “inhibition % at 1000 μM” value was 4.1% ^a in test [2] and 0% ^a in test [5].
